{"source": "patent US10973815B2", "about": "“Delta opioid agonist mu opioid antagonist compositions and methods for treating Parkinsons disease” (priority 2016, dated 2021)", "key": {"[1]": {"tested_on": "L-DOPA naïve MPTP-lesioned macaques", "test": "Monotherapy with Formula (i) in L-DOPA naïve MPTP-lesioned macaques", "assay_type": "in vivo, Macaca fascicularis", "method": "This activity is measured by an infra-red movement detector and captures all movement, normal and abnormal. MPTP-lesioned cynomolgus monkeys received acute oral administration of either vehicle or Formula (i) (1, 10 or 20 mg/kg) according to a randomized incomplete Latin Square-type. Levels of activity were assessed every minute over the entire 6 h observation. […] (FIG. 1A; time-course) or cumulated shown in FIG. 1B for 0-3 h; or FIG. 1C for 3-6 hr. N=8 for all treatment groups. */**/*** represents P<0.05, P<0.01 or P<0.001 cf. vehicle-treatment; 2-way RM ANOVA (FIG. 1A) or 1-way RM-ANOVA with Holm-Sidak's Multiple Comparison test (FIGS. 1B and C) (ns—not significant).\nMPTP-lesioned cynomolgus monkeys received acute oral administration of either vehicle or Formula (i) (1, 10 or 20 mg/kg) according to a randomized incomplete Latin Square-type. Levels of bradykinesia were assessed every 10 min over the entire 6 h observation and total duration of ON-time (minutes for which bradykinesia was absent) was calculated. Data are mean±s.e.m. N=8 for all treatment groups. All P>0.05, cf vehicle-treatment; 1-way, RM-ANOVA with Holm-Sidak's Multiple Comparison test.\nParkinsonian disability is scored by a trained neurologist who is blinded to treatment allocation but is trained to differentiate normal from abnormal movements and is able to distinguish diminution of Parkinsonian disability from dyskinetic (abnormal) movements. MPTP-lesioned cynomolgus monkeys received acute oral administration of either vehicle or Formula (i) (1, 10 or 20 mg/kg) according to a randomized incomplete Latin Square-type. Levels of parkinsonian disability were assessed every 10 min over the entire 6 h observation. […] N=8 for all treatment groups. */P<0.05 cf. vehicle-treatment; 2-way RM ANOVA of ranked data (FIG. 5A) or 1-way RM-ANOVA with Holm-Sidak's Multiple Comparison test (FIGS. 5B and C).\nEight cynomolgus monkeys (Macaca fascicularis, 6.4-6.8 years of age, 2.8-4.2 kg were used in this study. Animals were housed two or three per cage in the same housing room. The housing rooms were subject to a 12 hour light-dark cycle (lights on 7 a.m.), temperature 20-25° C. in a room containing only animals of the same sex. Fresh fruit, primate pellets and water were available ad libitum other than at times of overnight fasting prior to PK or behavioral assessment days.\nThe animals were rendered parkinsonian via once-daily subcutaneous injection of MPTP (0.2 mg/kg), administered for between 9 and 12 days, until the appearance of parkinsonism symptoms. After this time, a parkinsonian syndrome reached a moderate to marked level, over approximately 30 days, and stabilized. […] L-DOPA naïve animals have received no L-DOPA and those showing established motor complication have received L-DOPA in an amount 25 mg/kg orally twice daily for at least 2 months. L-DOPA is given with the decarboxylase inhibitor benserazide (as Madopar™)."}, "[2]": {"test": "Oral bioavailability in macaques", "parameters": "species or system Macaca fascicularis", "details": "cynomolgus monkey, in vivo", "excerpt": "ON-time represents lack of bradykinesia so mere improvement in bradykinesia would not be reflected in changes in ON-time. The oral bioavailability of the drug in these animals was only 1-2% so the lack of effect on ON-time is likely due to inadequate systemic exposure levels. Higher systemic levels of the drug may have a more profound effect on bradykinesia and which could translate into changes in ON-time."}, "[3]": {"details": "1, 10 or 20 mg/kg oral, Friedman test"}, "[4]": {"details": "any dose assessed (1, 10, 20 mg/kg oral)"}}, "note": "“Also recorded” adds a separate entry of the source."}
{"smiles": "CCN(CC)C(=O)c1ccc(C(c2cccc(O)c2)N2C[C@@H](C)N(Cc3cccc(F)c3)C[C@@H]2C)cc1", "note": "(stereo partly drawn) [DPI-289, 4-((alpha-R)-alpha-((2S,5R)-2,5-Dimethyl-4-(3-fluorobenzyl)-1-piperazinyl)-3-hydroxybenzyl)-N,N-diethylbenzamide]", "values": [{"measurement": "total duration of ON-time (mean)", "setting": "[1]; 1 mg/kg oral, 6 h observation", "value": "46 ± 48", "unit": "min"}, {"measurement": "postural impairment level", "setting": "[1]; 10 mg/kg oral, 1-2 h period of observation (2-3 h after treatment), P<0.01 cf. vehicle", "value": "absent-mild levels"}, {"measurement": "increase in activity counts cf. vehicle", "setting": "[1]; 10 mg/kg oral, 1-2 h period of observation (2-3 h after treatment), P<0.05", "value": 62, "unit": "%"}, {"measurement": "parkinsonian disability level", "setting": "[1]; 10 mg/kg oral, 1-2 h period of observation (2-3 h after treatment), P<0.05 cf. vehicle (mild-moderate levels)", "value": "absent-mild levels"}, {"measurement": "total duration of ON-time (mean)", "setting": "[1]; 10 mg/kg oral, 6 h observation", "value": "49 ± 48", "unit": "min"}, {"measurement": "bradykinesia level", "setting": "[1]; 10 mg/kg oral, first four hours of observation (1-5 h after administration), P<0.05 cf. vehicle (moderate-marked levels)", "value": "mild-moderate levels"}, {"measurement": "increase in activity counts cf. vehicle", "setting": "[1]; 20 mg/kg oral, 1-2 h period of observation (2-3 h after treatment), P<0.01", "value": 63, "unit": "%"}, {"measurement": "increase in activity counts cf. vehicle", "setting": "[1]; 20 mg/kg oral, 2-3 h period of observation, P<0.05", "value": 82, "unit": "%"}, {"measurement": "total duration of ON-time (mean)", "setting": "[1]; 20 mg/kg oral, 6 h observation", "value": "1 ± 1", "unit": "min"}, {"measurement": "dyskinesia", "setting": "[1]; 1, 10 or 20 mg/kg oral, 6 h observation, listed as Formula (i)", "value": "did not evoke dyskinesia; also recorded: All zero values"}, {"measurement": "average postural impairment cumulated 0-3 h", "setting": "[1]; 1, 10 or 20 mg/kg oral, Friedman P=0.031, post-hoc Dunn's all P>0.05", "value": "significant effect of Formula (i) treatment"}, {"measurement": "average bradykinesia cumulated 0-3 h", "setting": "[1]; 1, 10 or 20 mg/kg oral, Friedman P=0.034, post-hoc Dunn's all P>0.05", "value": "significant effect of DPI-289 treatment"}, {"measurement": "average bradykinesia cumulated 3-6 h", "setting": "[1]; [3]", "value": "no significant effects"}, {"measurement": "average parkinsonism cumulated over 0-3 h and 3-6 h", "setting": "[1]; [3]", "value": "no significant effect"}, {"measurement": "average postural impairment cumulated 3-6 h", "setting": "[1]; [3]", "value": "no significant effects"}, {"measurement": "average activity cumulated over 0-3 h and 3-6 h", "setting": "[1]; 1, 10 or 20 mg/kg oral, cf. vehicle", "value": "no significant effect"}, {"measurement": "alertness", "setting": "[1]; [4]", "value": "no increase in levels of alertness"}, {"measurement": "range of movement", "setting": "[1]; [4]", "value": "no reduction in levels of impaired range of movement"}, {"measurement": "total duration of ON-time cf. vehicle", "setting": "[1]; [4]", "value": "no significant increase in total duration of ON-time"}, {"measurement": "bioavailability", "setting": "[2]", "value": "1 to 2", "unit": "%"}]}
